Laboratory results taken from patent publication US12655139B2, “Isoxazolidines as RIPK1 inhibitors and use thereof” (SANOFI, priority 2020, dated 2026).
Counter-ions that a name gives are not always drawn. Like-named read-outs stand apart in the source and are kept apart here.

Assays:
[1] = target: T1, hRIPK1 (aa 1-375) fusion protein (Homo sapiens, UniProt Q13546); assay: ADP-Glo kinase assay, RIPK1 autophosphorylation; format: biochemical
T1 construct: hRIPK1 (aa 1-375) fusion protein
T1 sequence (Q13546 1-375): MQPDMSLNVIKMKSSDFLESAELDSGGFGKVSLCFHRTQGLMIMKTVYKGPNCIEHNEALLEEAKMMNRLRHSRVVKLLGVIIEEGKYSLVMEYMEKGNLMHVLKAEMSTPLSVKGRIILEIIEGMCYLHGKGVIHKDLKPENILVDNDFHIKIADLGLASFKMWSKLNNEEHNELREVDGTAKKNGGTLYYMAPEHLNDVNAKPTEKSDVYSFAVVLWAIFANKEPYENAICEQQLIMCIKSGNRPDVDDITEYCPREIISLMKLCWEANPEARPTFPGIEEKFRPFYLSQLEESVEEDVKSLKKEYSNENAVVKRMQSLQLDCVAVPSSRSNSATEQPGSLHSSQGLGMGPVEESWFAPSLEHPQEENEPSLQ

U937 cells [2] = assay: Cellular assay in U937 cells on cell death (necroptosis), TNFα/zVAD.fmk; format: cell-based; settings: Homo sapiens
How it was run: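 U937 cells with 100 ng/ml TNFα plus 50 μM zVAD.fmk (pre-addition suspension levels) received 10 compound concentrations (10 μM–0.26 nM or 1 μM–0.07 nM) for 18–24 h at 37 °C. Live cells were read by MTS formazan absorbance at 490 nm after 4 h. % inhibition is relative to the maximal value without TNFα/zVAD.fmk.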

[3] = Pharmacokinetic studies in mice, oral application; format: in vivo; settings: male, C57BL/6, brain / plasma, mouse
Procedure: Pharmacokinetic Studies in Mice
A suspension of the respective test articles (30 mg/kg, 10 ml/kg, 3 mg/ml) was prepared in 0.6% methyl cellulose (MC) by thorough mixing of the fine solid with the freshly made and filtered MC solution and administered to 24 non-fasted male C57BL/6 mice (20-25 g) by gavage. Terminal blood sampling (with the addition of K2-EDTA) was performed at 0.25, 0.5, 1, 2, 4, 6, 8 and 24 h post admin. Plasma was generated by centrifugation and deep-frozen (−20° C.). In addition, after 2 h, brain and liver were removed from the respective 3 mice. Additional plasma was collected from terminal blood. The organs were pooled, homogenized and the homogenate extracted with an acetonitrile-water mixture prior to measurement by HPLC-MS/MS. The brain/plasma ratio was determined at 2 h by dividing the brain concentration at 2 h through the respective value for the plasma concentration at 2 h.
Ex. 004: 21 mice were used in the study, without the 6 h sampling time. The same study design was applied.
A suspension of the respective test articles (30 mg/kg, 10 ml/kg, 3 mg/ml) was prepared in freshly prepared and filtered 0.6% methyl cellulose solution by wet-milling using Retsch MM 301 mixer mill (10 min, room temperature) and administered to 6 non-fasted male C57BL/6 mice (20-25 g) by gavage. Serial sampling of blood (with the addition of K3-EDTA) was performed at 0.25, 0.5, 1, 2, 4, 6, 8 and 24 h post admin. The blood samples were diluted (10 μl blood were added to a mixture of 90 μl 25% acetonitrile in water) and deep-frozen (−20° C.). After 2 h, 3 of the 6 animals were sacrificed and brain and liver taken off. Additional plasma was prepared from terminal blood. The organs were homogenized and the homogenate extracted with an acetonitrile-water mixture prior to measurement by HPLC-MS/MS. The brain/plasma ratio was determined at 2 h by dividing the brain concentration at 2 h through the respective value for the plasma concentration at 2 h.

[4] = monkeys, doses ≥100 mg/kg; cited from earlier work
U937 cells [5] = settings: Comparator table 5; data from P.A. Harris et al. J Med Chem 2019, 62, 5096; cited from earlier work
[6] = Pharmacokinetic studies in mice, intravenous application with non-serial sampling; format: in vivo
Procedure: Intravenous Application with Non-Serial Sampling Compound K
A solution of the respective test articles (3 mg/kg, 5 mL/kg, 0.6 mg/mL) was prepared by dissolving the solids in 7.5% N-Methyl pyrrolidon followed by addition of 60% PEG200 and 32.5% water for injection. Intravenous administration to 24 (3×8, groups per time) non-fasted male C57BL/6 mice (20-25 g) followed immediately after preparation. Terminal blood sampling (with the addition of K2-EDTA) was performed at 0.083, 0.25, 0.5, 1, 2, 4, 8 and 24 h post admin. Plasma was generated by centrifugation and deep-frozen (−20° C.). In addition, brain and liver were removed from all animals. The organs were pooled per time group, homogenized and the homogenate extracted with an acetonitrile-water mixture prior to measurement by HPLC-MS/MS. The brain/plasma ratio was determined by dividing the brain concentration through the respective value for the plasma concentration at the same sampling time.

[7] = Intravenous application to cynomolgus monkeys, side effects and histopathology; format: in vivo, cynomolgus monkey; settings: 1 mg/kg, i.v.
[8] = U-937, Comparator table 5, read-out: U937 IC50 (uM) Mean
[9] = 2 h, oral 30 mg/kg, read-out: Mouse PK brain/blood ratio
[10] = U-937, Table 2, read-out: U937 IC50

Structure (SMILES)	IC50 ([1]; Table 1) [nM]	IC50 (U937 cells [2]; [10]) [µM]	other results
N#Cc1cc(N2CCC(C(=O)N3OCC[C@H]3c3cc(F)cc(F)c3)CC2)ncn1 [A, reference compound]			IC50 ([1]; Comparator table 5): 12 nM; IC50 (U937 cells [2]; [8]): 0.003 µM; Kp at 2 h [3, 9]: 0.82
NC(=O)c1cc(N2CCC(C(=O)N3OCC[C@H]3c3cc(F)cc(F)c3)CC2)ncn1 [D, reference compound]			IC50 ([1]; Comparator table 5): 10 nM; IC50 (U937 cells [2]; [8]): 0.004 µM; Kp at 2 h [3, 9]: 1.1
N#Cc1cc(N2CCC(C(=O)N3N=CC[C@H]3c3cc(F)cc(F)c3)CC2)ncn1 [G, reference compound]			IC50 (U937 cells [2]; [8]): 0.002 µM; Kp at 2 h [3, 9]: 1.5
CN1C(=O)[C@@H](NC(=O)c2nnc(Cc3ccccc3)[nH]2)COc2ccccc21 [GSK2982772]			central side effects [4]: irregular gait and uncoordinated movement
CC(C)(C)C(=O)N1N=CC[C@H]1c1cc(F)cc(F)c1 [H]			IC50 (U937 cells [5]): 0.006 µM
COc1cc(N2CCC(C(=O)N3OCC[C@H]3c3cc(F)cc(F)c3)CC2)ncn1 [K, reference compound]			Mouse PK brain/blood ratio ([6]; 15 min, i.v. 3 mg/kg): 2.1 (15 min i.v. 3 mg/kg); IC50 ([1]; Comparator table 5): 18 nM; IC50 (U937 cells [2]; [8]): 0.01 µM
COc1cc(N2CCC(C(=O)N3OCC[C@H]3c3cc(F)cc(F)c3)CC2)ncn1 [comparator compound K, [1-(6-Methoxypyrimidin-4-yl)-4-piperidyl]-[(3S)-3-(3,5-difluorophenyl)isoxazolidin-2-yl]methanone]			Kp at 15 min ([6]; male, C57BL/6, brain / plasma, iv, mouse, 15 min after i.v. application of 3 mg/kg, read-out: brain/blood ratio): 2.1; concentration at 15 min ([6]; male, C57BL/6, brain, iv, mouse, 15 min after i.v. application of 3 mg/kg, read-out: brain levels): 1580 ng/mL; histopathological examination [7]: bilateral and symmetrical lesions of brain necrosis; side effects [7]: severe side effects; Kp at 2 h ([3]; 2 h after oral application of 30 mg/kg, read-out: brain/plasma ratio): 1.6
Cc1coc([C@@H]2CCON2C(=O)C2CCN(c3nccc(C(N)=O)n3)CC2)c1 [compound 151, (S)-2-(4-(3-(4-methylfuran-2-yl)isoxazolidine-2-carbonyl)piperidin-1-yl)pyrimidine-4-carboxamide 2,2,2-trifluoroacetate salt]	100	0.025	

Second part, led by results:

IC50 ([1]; Table 1) [nM]	Structure (SMILES)	IC50 (U937 cells [2]; [10]) [µM]	other results
132	Cc1coc([C@@H]2CCON2C(=O)C2CCN(c3cc(C#N)ncn3)CC2)c1 [compound 152, (S)-6-(4-(3-(4-methylfuran-2-yl)isoxazolidine-2-carbonyl)piperidin-1-yl)pyrimidine-4-carbonitrile 2,2,2-trifluoroacetate salt]	0.128	
102	Cc1coc([C@@H]2CCON2C(=O)C2CCN(c3cc(C(N)=O)ncn3)CC2)c1 [compound 153, (S)-6-(4-(3-(4-methylfuran-2-yl)isoxazolidine-2-carbonyl)piperidin-1-yl)pyrimidine-4-carboxamide 2,2,2-trifluoroacetate salt]	0.0998	
20.1	Cc1cc([C@@H]2CCON2C(=O)C2CCN(c3nccc(C#N)n3)CC2)co1 [compound 162, (S)-2-(4-(3-(5-methylfuran-3-yl)isoxazolidine-2-carbonyl)piperidin-1-yl)pyrimidine-4-carbonitrile]	0.00541	
20.8	Cc1cc([C@@H]2CCON2C(=O)C2CCN(c3cc(C#N)ncn3)CC2)co1 [compound 163, (S)-6-(4-(3-(5-methylfuran-3-yl)isoxazolidine-2-carbonyl)piperidin-1-yl)pyrimidine-4-carbonitrile]	0.00604	
23.4	N#Cc1cncc([C@@H]2CCON2C(=O)C2CCN(c3cc(F)ncn3)CC2)c1 [compound 169, (S)-5-(2-(1-(6-fluoropyrimidin-4-yl)piperidine-4-carbonyl)isoxazolidin-3-yl)nicotinonitrile]	0.119	
173	N#Cc1cc([C@@H]2CCON2C(=O)C2CCN(c3nccc(C(N)=O)n3)CC2)cnn1 [compound 179, 2-[4-[(3S)-3-(6-cyanopyridazin-4-yl)isoxazolidine-2-carbonyl]-1-piperidyl]pyrimidine-4-carboxamide]	2.03	
15.6	Cc1ccc([C@@H]2CCON2C(=O)C2CCN(c3ncc(C)c(C(N)=O)n3)CC2)s1 [compound 182, 5-methyl-2-[4-[(3S)-3-(5-methyl-2-thienyl)isoxazolidine-2-carbonyl]-1-piperidyl]pyrimidine-4-carboxamide]	0.00701	
65.9	Cc1ccc([C@@H]2CCON2C(=O)C2CCN(c3ncnc(C(N)=O)c3F)CC2)cn1 [compound 187, 5-fluoro-6-[4-[(3S)-3-(6-methyl-3-pyridyl)isoxazolidine-2-carbonyl]-1-piperidyl]pyrimidine-4-carboxamide; trifluoroacetic acid]	0.321	
